Laboratory results reported in US20210228497A1, “New Medical Devices, Delivery Vehicles and Manufacturing Thereof” (Remy Biosciences, Inc., priority 2018, published 2021).

Assay: Saturation concentration of CBD in adhesive matrix (turbidity / flux plateau)
Assay type: physicochemical

Question: What does the source list for `C=C(C)[C@@H]1CCC(C)=C[C@H]1c1c(O)cc(CCCCC)cc1O` [CBD, cannabidiol]?
Answer: Saturation concentration of CBD in acrylate adhesive Durotak 87-2287 (Durotak 87-2287 adhesive matrix): 30%; Saturation concentration of CBD in PIB adhesive (un-tackified PIB adhesive matrix): 12%
